The results in this text go back to ChEMBL document CHEMBL1201862, “PubChem BioAssay data set” (2004).

Activity calls are given as the source filed them.

The target in one test is Beta-galactosidase (Escherichia coli, UniProt Q8VNN2). As to the kind of experiment: Dose response counterscreen for EBI2 assay utilizing the enzyme, b-galactosidase. In kind it is functional.
The subject of another test is HEK293. As to the kind of experiment: HEK293T cell cytotoxicity, dose response, cytotoxicity control, ATP luminescence, cherry-pick samples (AID 687005).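 Also: cells exposed to compound for 48 hours.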 It is filed as functional, cell-based. The conditions noted are these: Homo sapiens.
A short description of test [1]: HEK293 Cytotoxicity Assay Measured in Cell-Based System Using Plate Reader - 7071-01_Inhibitor_Dose_CherryPick_Activity_Set2. In kind it is functional.
The target in test [2] is Nuclear receptor subfamily 5 group A member 2 (Homo sapiens, UniProt O00482). It is filed as functional, cell-based.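 Also: HEK293T cells transfected with LRH-1 and a StAR promoter luciferase reporter; potency for inhibitors that lower LRH-1 driven reporter light.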
For the next test, the target named is Steroidogenic factor 1 (Homo sapiens, UniProt Q13285). The test is described as follows: Counterscreen for inverse agonists of the liver receptor homolog-1 (LRH-1; NR5A2): Luminescence-based cell-based high throughput dose response assay to identify inverse agonists of the Steroidogenic Factor 1 Nuclear Receptor (SF1; NR5A1). It is filed as functional.
Test [3] in a line: StAR promoter reporter inhibition counter-screen, dose response, counter-screen for LRH-1 inverse agonist project, cell-based, luminescence, luciferase reporter (AID 651969). In kind it is functional.
The test system of a further test is A549. As to the kind of experiment: A549 cell toxicity, dose response, cytotoxicity control, plate reader, cherry-pick samples (AID 687028). The following applies: Homo sapiens. It is filed as functional, cell-based.
The next test addresses Paired box protein Pax-8 (Homo sapiens, UniProt Q06710). The test is described as follows: inhibitors of PAX8-driven TPO luciferase reporter, dose response, RMG-I cells, cherry-pick (AID 687027).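 Also: luciferase reporter driven by Pax8 target thyroperoxidase promoter measured by SteadyGlo luminescence.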 In kind it is functional, cell-based.
The nature of test [4]: PAX2 cell-based inhibition, dose response, selectivity assay for PAX8 inhibitor project, plate reader, dry powder samples (AID 743048).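 Also: HEK293 cells carrying a WT1 promoter luciferase reporter driven by expressed Pax2; potency is for inhibition of Pax2 driven reporter signal.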 In kind it is functional.
A short description of test [5]: cytotoxicity in COV362 ovarian cancer cells, dose response, cytotoxicity control for PAX8 inhibitor project, cell-based, plate reader, dry powder, SA12 (AID 743144). In kind it is functional.
Test [6] is described as follows: NIH:OVCAR-3 ovarian cancer cell cytotoxicity, dose response, PAX8 inhibitor project, plate reader, dry powder samples (AID 743044). It is filed as functional, cell-based.
A short description of test [7]: PAX5 activity inhibitors, dose response, selectivity assay for PAX8 inhibitor project, cell-based, plate reader, dry powder samples (AID 743047).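 Also: HEK293 cells carrying a Pax5 driven CD19 promoter luciferase reporter; potency of inhibitors that lower reporter luminescence.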 In kind it is functional.
The nature of test [8]: IGROV1 ovarian cancer cell cytotoxicity, dose response, PAX8 inhibitor project, plate reader, dry powder samples (AID 743043). The conditions noted are these: IGROV-1. It is filed as functional, cell-based.
A short description of test [9]: cytotoxicity in OVCAR4 cells, dose response, cytotoxicity control for PAX8 inhibitor project, cell-based, plate reader, dry powder, SA11 (AID 743150). It is filed as functional. The following applies: OVCAR-4.
The nature of test [10]: cytotoxicity in COV434 cells, dose response, cytotoxicity control for PAX8 inhibitor project, cell-based, plate reader, dry powder, SA7 (AID 743145). It is filed as functional.
Test [11] is described as follows: cytotoxicity in OV-90 ovarian cancer cells, dose response, PAX8 inhibitor project, cell-based, plate reader, dry powder, SA8 (AID 743149). It is filed as functional.
A short description of test [12]: cytotoxicity dependent on PAX8, dose response, cell-based, plate reader, dry powder (AID 743049). It is filed as functional.
Test [13] is described as follows: MITF Orthogonal Assay: SK-MEL-5 CTG Assay Measured in Cell-Based System Using Plate Reader - 2084-02_Inhibitor_Dose_DryPowder_Activity_Set7. It is filed as functional.
Test [14] is described as follows: MITF: Counter assay: A375 proliferation Measured in Cell-Based System Using Plate Reader - 2084-03_Inhibitor_Dose_DryPowder_Activity_Set8. The conditions noted are these: A-375. It is filed as functional.
The nature of test [15]: TRPM1 promoter luciferase reporter signal decrease, dose response, MITF inhibitor project, cell-based, SK-MEL-5, dry powder, set 8 (AID 624430). In kind it is functional.
A short description of test [16]: A Cell-Based Confirmatory Screen for Compounds that Inhibit VEEV, TC-83 (7). It is filed as functional.
Test [17] in a line: NIH/3T3 fibroblast cytotoxicity, dose response, cytotoxicity control, cell-based, plate reader, dry powder, set 2 (AID 652280). The conditions noted are these: NIH3T3. In kind it is functional.
The nature of test [18]: T. cruzi growth inhibition in host cells, dose response, cell-based, plate reader, dry powder, set 2 (AID 652275). In kind it is functional.
Test [19] can be described thus: P. falciparum Dd2 growth inhibitors, dose response, SYBR Green, cherry-picked samples (AID 1159567). It is filed as functional, cell-based.
In test [20] the target is Endoplasmic reticulum aminopeptidase 1 (Homo sapiens, UniProt Q9NZ08). The test is described as follows: ERAP1 aminopeptidase inhibitors, dose response, biochemical, cherry-pick, set 2, plate reader (AID 743314).
Endoplasmic reticulum aminopeptidase 1, sequence (Q9NZ08 whole entry): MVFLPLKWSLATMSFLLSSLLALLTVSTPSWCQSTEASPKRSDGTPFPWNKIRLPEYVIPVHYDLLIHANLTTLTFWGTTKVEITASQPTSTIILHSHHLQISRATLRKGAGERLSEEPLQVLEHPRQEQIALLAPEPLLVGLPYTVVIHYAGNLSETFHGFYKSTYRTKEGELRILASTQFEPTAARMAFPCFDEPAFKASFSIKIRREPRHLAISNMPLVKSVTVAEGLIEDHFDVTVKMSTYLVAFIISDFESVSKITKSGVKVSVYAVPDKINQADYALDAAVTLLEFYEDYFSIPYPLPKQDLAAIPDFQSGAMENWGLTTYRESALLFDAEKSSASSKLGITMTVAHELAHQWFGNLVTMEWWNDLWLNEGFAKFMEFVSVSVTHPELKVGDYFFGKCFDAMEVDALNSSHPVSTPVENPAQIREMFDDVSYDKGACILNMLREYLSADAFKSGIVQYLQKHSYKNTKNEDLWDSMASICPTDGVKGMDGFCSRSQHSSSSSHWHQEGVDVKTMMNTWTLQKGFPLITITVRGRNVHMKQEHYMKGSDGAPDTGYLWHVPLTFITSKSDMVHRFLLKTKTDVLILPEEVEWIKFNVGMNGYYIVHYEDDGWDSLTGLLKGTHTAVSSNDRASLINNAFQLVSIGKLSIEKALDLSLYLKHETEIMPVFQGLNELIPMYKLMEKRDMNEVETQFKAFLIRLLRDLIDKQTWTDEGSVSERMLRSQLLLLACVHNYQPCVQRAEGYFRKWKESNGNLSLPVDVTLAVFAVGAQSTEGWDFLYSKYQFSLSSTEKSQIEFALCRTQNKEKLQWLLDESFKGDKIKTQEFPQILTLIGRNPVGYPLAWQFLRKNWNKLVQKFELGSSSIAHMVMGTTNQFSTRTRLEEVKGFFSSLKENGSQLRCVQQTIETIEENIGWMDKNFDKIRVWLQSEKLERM

Steroidogenic factor 1, sequence (Q13285 whole entry): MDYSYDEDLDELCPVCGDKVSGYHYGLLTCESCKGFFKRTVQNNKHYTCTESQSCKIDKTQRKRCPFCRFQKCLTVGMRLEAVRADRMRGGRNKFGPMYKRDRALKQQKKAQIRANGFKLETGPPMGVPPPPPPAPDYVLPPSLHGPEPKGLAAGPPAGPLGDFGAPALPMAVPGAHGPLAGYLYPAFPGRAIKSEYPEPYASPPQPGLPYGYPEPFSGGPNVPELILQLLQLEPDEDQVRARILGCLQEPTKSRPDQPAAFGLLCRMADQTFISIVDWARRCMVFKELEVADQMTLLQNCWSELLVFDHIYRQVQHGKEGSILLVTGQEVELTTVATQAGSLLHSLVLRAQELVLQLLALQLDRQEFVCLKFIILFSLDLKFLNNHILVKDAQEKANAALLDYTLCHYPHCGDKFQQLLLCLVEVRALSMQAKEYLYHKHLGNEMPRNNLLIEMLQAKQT
Nuclear receptor subfamily 5 group A member 2, sequence (O00482 whole entry): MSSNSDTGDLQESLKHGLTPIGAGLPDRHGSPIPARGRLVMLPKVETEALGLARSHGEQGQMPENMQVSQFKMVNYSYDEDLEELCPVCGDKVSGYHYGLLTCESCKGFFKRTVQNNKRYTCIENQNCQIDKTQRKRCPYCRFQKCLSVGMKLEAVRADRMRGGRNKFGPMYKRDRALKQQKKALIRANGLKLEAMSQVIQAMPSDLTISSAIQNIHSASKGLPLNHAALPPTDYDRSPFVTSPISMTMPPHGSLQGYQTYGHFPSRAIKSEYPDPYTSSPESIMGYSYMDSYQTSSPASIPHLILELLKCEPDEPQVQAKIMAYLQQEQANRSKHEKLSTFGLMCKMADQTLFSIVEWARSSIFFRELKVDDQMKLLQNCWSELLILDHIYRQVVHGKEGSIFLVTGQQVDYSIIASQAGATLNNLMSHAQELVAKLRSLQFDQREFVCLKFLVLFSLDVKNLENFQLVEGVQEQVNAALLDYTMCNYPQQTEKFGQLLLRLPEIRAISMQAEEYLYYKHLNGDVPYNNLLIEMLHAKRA
Beta-galactosidase, sequence (Q8VNN2 whole entry): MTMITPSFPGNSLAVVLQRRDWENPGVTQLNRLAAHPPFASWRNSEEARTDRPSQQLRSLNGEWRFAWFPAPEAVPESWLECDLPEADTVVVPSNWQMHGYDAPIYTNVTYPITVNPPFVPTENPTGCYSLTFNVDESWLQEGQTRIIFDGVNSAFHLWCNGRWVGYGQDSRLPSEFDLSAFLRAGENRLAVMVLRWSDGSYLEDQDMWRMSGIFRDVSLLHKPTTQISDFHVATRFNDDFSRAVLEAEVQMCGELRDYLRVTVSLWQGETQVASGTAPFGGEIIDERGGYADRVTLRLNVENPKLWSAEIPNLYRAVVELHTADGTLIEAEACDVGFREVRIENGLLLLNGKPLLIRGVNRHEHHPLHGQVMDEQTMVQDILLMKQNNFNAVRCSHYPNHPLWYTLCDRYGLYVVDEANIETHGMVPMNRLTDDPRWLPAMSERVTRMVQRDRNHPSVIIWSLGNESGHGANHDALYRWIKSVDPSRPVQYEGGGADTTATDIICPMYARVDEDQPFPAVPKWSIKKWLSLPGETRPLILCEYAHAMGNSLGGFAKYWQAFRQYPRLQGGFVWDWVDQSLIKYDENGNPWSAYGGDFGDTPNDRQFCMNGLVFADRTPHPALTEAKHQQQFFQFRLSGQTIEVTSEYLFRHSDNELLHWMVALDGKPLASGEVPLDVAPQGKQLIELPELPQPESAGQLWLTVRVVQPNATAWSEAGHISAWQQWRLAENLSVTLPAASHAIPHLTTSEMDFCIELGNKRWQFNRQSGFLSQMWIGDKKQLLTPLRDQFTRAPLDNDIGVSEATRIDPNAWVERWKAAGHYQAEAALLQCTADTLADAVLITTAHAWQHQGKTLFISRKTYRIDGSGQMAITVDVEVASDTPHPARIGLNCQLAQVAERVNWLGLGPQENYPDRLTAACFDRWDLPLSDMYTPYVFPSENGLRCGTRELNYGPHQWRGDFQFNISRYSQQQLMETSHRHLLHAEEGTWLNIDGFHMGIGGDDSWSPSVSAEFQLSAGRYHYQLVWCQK
Paired box protein Pax-8, sequence (Q06710 whole entry): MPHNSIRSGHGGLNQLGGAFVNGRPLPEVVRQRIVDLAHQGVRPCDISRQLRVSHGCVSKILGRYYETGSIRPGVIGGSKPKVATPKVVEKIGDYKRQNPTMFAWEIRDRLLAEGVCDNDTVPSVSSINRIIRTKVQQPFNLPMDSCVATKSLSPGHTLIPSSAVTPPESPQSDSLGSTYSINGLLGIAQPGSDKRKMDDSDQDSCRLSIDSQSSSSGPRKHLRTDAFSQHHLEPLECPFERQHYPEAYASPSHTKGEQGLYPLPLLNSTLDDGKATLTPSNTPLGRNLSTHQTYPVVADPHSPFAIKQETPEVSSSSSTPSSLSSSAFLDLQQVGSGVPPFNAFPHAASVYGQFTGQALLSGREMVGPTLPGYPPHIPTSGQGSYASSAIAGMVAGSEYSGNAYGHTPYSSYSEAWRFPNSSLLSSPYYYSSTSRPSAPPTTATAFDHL

Turning to `CCOC(=O)c1ccc(S(=O)(=O)N2CCN(C(=O)c3cc4ccccc4o3)CC2)cc1`, on Beta-galactosidase, the IC50 is > 80 µM (inactive).
On to `O=C(c1cccc(Br)c1)N1CCN(c2ccccn2)CC1`, for which the AC50 (in the test on HEK293; in test [1]) was > 52 µM (inactive) throughout.
For the compound `CC(=O)Nc1cc(-c2ccc(F)cc2)cn2c(-c3ccc(S(C)(=O)=O)cc3)cnc12`, the IC50 in [2] was 8.66 µM (active); on Steroidogenic factor 1, 3.15 µM (active); in [3] it was 21.3 µM (inactive).
In the case of `C[C@@H]1CCCCO[C@H](CN(C)C(=O)Nc2ccc(C(F)(F)F)cc2)[C@H](C)CN([C@@H](C)CO)C(=O)c2cc(NS(=O)(=O)c3ccc(F)cc3)ccc2O1`, in the test with A549, the AC50 was 28.1 µM (active).
Regarding `COc1ccc(S(=O)(=O)Nc2ccc3c(c2)C(=O)N([C@@H](C)CO)C[C@H](C)[C@H](CN(C)Cc2ccc(C(F)(F)F)cc2)OCCCC[C@H](C)O3)cc1`, the AC50 on Paired box protein Pax-8 was 5.59 µM (active); in [4], 15.5 µM (active); in test [5], 38.3 µM (active); in test [6], 17.1 µM (active); in test [7], 19.6 µM (active); in test [8], 34.5 µM (active). Besides, the AC50 was 33.6 µM (active) in test [9], 26.5 µM (active) in [10], 21.9 µM (active) in [11] and 24.2 µM (active) in test [12].
As for `CN1CCN(C2=C(Nc3ccc(Cl)c(Cl)c3)C(=O)c3ccccc3C2=O)CC1`, the results for the concentration at half-maximal activity (AC50) in test [13], in test [14] and in test [15] were 7.66 µM (active), 27.9 µM (active) and 6.64 µM (active), respectively.
For `O=c1c2cc([N+](=O)[O-])ccc2nc(CN2CCCNC2)n1-c1ccccc1`, in [16], the IC50 is 1.13 µM (active).
As to `CN(C)CC#Cc1cccc(-c2nc(C(=O)N[C@@H]3CCN(Cc4ccccc4)C3)cc3c2[C@H](CCO)N([S+]([O-])C(C)(C)C)C3)c1` (stereo not given in full), the half-maximal activity concentration (AC50) in test [17] was 5.14 µM (active); in [18], 0.58 µM (active); in [19] it was 2.71 µM (active).
For `CCCNC(=O)[C@H]1[C@H](CO)[C@H]2Cn3c(ccc(/C=C/c4ccccc4)c3=O)[C@H]2N1CCC`, the AC50 in test [20] is 14.8 µM (active).
